Values after ≈ are worked out from the molar mass of the structure shown.
Tests used:
Assay in all cases: Agar dilution method microbicidal test
Type in all cases: cell-based
Bacillus cereus = system: Bacillus cereus; note: key: +: grew; −: did not grow
Procedure: (§1) As microbicidal test method for trans-p-coumaric acid, 3-hydroxypyridine, p-hydroxybenzaldehyde and vanillin, the agar dilution method was employed.
(§2) In agar dilution method, a solution in which a sample is dissolved is serially diluted several times, and each of the diluted sample solutions is mixed with agar medium to prepare plate agars having various sample concentration. Then bacteria is inoculated onto the plate agars. In cases where the sample has a microbicidal activity, the growth of the bacteria on the plates can be inhibited. The lowest concentration which can inhibit the growth of the bacteria is referred to as Minimum Inhibitory Concentration (MIC), thereby judging the degree of a microbicidal activity of the sample.
(§3) First, 400 mg of sample was dissolved in 1 mL of DMSO to prepare 400 mg/mL sample solution. Then 0.5 mL of this 400 mg/mL sample solution was diluted 2-fold to prepare 200 mg/mL sample solution. In the same manner, sample solutions of 100 mg/mL, 50.0 mg/mL, and 25.0 mg/mL were prepared. In addition, 300 mg/mL sample solution was prepared. Thereafter, 0.2 mL of these sample solutions each was mixed with 19.8 mL of BHI (Brain Heart Infusion Agar, Becton Dickinson, MD) medium, thereby preparing agar plates having the sample concentration of 4.0 mg/mL, 3.0 mg/mL, 2.0 mg/mL, 1.0 mg/mL, 0.5 mg/mL, and 0.25 mg/mL in dishes. […] Sterilized water was used for dissolving catechin, because catechin was insoluble in DMSO.
(§4) As test bacteria, 13 kinds of bacteria, i.e., Streptococcus pneumoniae, Streptococcus pyogenes, Enterococcus faecalis, Staphylococcus aureus, Escherichia coli, Salmonella sp., Yersinia enterocolitica, Vibrio parahaemolyticus, Pseudomonas aeruginosa, Bacillus cereus, Bacillus subtilis MB-32, Bacillus subtilis ATCC6633, and Candida sp., were used. These bacteria each was mixed with 2 mL of sterilized MHB^R liquid medium (Mueller Hinton Broth^R, Becton Dickinson, MD) to prepare bacterial suspension having turbidity 1 (bacterial concentration 10^8/mL). Previously, small test tubes were set into each cell of a grating and sterilized, and 1 mL of 13 bacterial suspensions were added into the small test tubes set in the grating, respectively. By using a microplanter (SAKUMA, model: MIT-P), 10 μL aliquot was collected from each test tube set in the grating and transferred to other test tube, and the transferred bacterial suspensions were diluted 100-fold (bacterial concentration 10^6/mL).
(§5) By using the microplanter, 10 μL (bacterial number […]) of this bacterial suspension was inoculated onto the plates containing the sample solution of various concentrations. The plates were incubated for 18 hours in an incubator at 37° C., and then a microbicidal activity of each compound was assessed.

[1] = system: Bacillus subtilis ATCC6633; conditions: Bacillus subtilis ATCC 6633; note: key: +: grew; −: did not grow
Procedure: as §1, §2, §3, §4, §5

Bacillus subtilis MB-32 = system: Bacillus subtilis MB-32; note: key: +: grew; −: did not grow
Procedure: as §1, §2, §3, §4, §5

Candida sp. = system: Candida sp. For Growth on agar plate: key: +: grew; −: did not grow.
Procedure: as §1, §2, §3, §4, §5

Enterococcus faecalis = system: Enterococcus faecalis; note: key: +: grew; −: did not grow
Procedure: as §1, §2, §3, §4, §5

Escherichia coli = system: Escherichia coli; note: key: +: grew; −: did not grow
Procedure: as §1, §2, §3, §4, §5

Pseudomonas aeruginosa = system: Pseudomonas aeruginosa; for Growth on agar plate: key: +: grew; −: did not grow
Procedure: as §1, §2, §3, §4, §5

Salmonella sp. = system: Salmonella sp. Note: key: +: grew; −: did not grow.
Procedure: as §1, §2, §3, §4, §5

Staphylococcus aureus = system: Staphylococcus aureus; for Growth on agar plate: key: +: grew; −: did not grow
Procedure: as §1, §2, §3, §4, §5

Streptococcus pneumoniae = system: Streptococcus pneumoniae; for Growth on agar plate: key: +: grew; −: did not grow
Procedure: as §1, §2, §3, §4, §5

Streptococcus pyogenes = system: Streptococcus pyogenes; for Growth on agar plate: key: +: grew; −: did not grow
Procedure: as §1, §2, §3, §4, §5

Vibrio parahaemolyticus = system: Vibrio parahaemolyticus; for Growth on agar plate: key: +: grew; −: did not grow
Procedure: as §1, §2, §3, §4, §5

Yersinia enterocolitica = system: Yersinia enterocolitica; for Growth on agar plate: key: +: grew; −: did not grow
Procedure: as §1, §2, §3, §4, §5

[2] = BHI agar, 37° C., 18 hours, read-out: MIC

In the case of `Oc1cccnc1` [3-Hydroxypyridine, 3-hydroxypyridine], the “Growth on agar plate” value (Bacillus cereus; 0.25 mg/mL) is reported as “+”, the “Growth on agar plate” value (Bacillus cereus; 0.5 mg/mL) is reported as “+” and the “Growth on agar plate” value (Bacillus cereus; 1.0 mg/mL) is reported as “+”. The “Growth on agar plate” value (Bacillus cereus; 2.0 mg/mL) was “+”, the “Growth on agar plate” value (Bacillus cereus; 3.0 mg/mL) was “+” and the “Growth on agar plate” value (Bacillus cereus; 4.0 mg/mL) was “+”. The “Growth on agar plate” value ([1]; 0.25 mg/mL) was “+”, the “Growth on agar plate” value ([1]; 0.5 mg/mL) was “+” and the “Growth on agar plate” value ([1]; 1.0 mg/mL) was “+”. The “Growth on agar plate” value ([1]; 2.0 mg/mL) was “+”, the “Growth on agar plate” value ([1]; 3.0 mg/mL) was “+” and the “Growth on agar plate” value ([1]; 4.0 mg/mL) was “+”. The “Growth on agar plate” value (Bacillus subtilis MB-32; 0.25 mg/mL) was “+”, the “Growth on agar plate” value (Bacillus subtilis MB-32; 0.5 mg/mL) was “+” and the “Growth on agar plate” value (Bacillus subtilis MB-32; 1.0 mg/mL) was “+”. The “Growth on agar plate” value (Bacillus subtilis MB-32; 2.0 mg/mL) was “+”, the “Growth on agar plate” value (Bacillus subtilis MB-32; 3.0 mg/mL) was “+” and the “Growth on agar plate” value (Bacillus subtilis MB-32; 4.0 mg/mL) was “+”. The “activity (in words)” value (Candida sp.) was “had an activity”, the “Growth on agar plate” value (Candida sp.; 0.25 mg/mL) was “+” and the “Growth on agar plate” value (Candida sp.; 0.5 mg/mL) was “+”. The “Growth on agar plate” value (Candida sp.; 1.0 mg/mL) was “+”, the “Growth on agar plate” value (Candida sp.; 2.0 mg/mL) was “+” and the “Growth on agar plate” value (Candida sp.; 3.0 mg/mL) was “+”. The “Growth on agar plate” value (Candida sp.; 4.0 mg/mL) was “−”, the MIC (Candida sp.; [2]) was 4000 µg/mL (≈ 42.1 mM) and the “Growth on agar plate” value (Enterococcus faecalis; 0.25 mg/mL) was “+”. The “Growth on agar plate” value (Enterococcus faecalis; 0.5 mg/mL) was “+”, the “Growth on agar plate” value (Enterococcus faecalis; 1.0 mg/mL) was “+” and the “Growth on agar plate” value (Enterococcus faecalis; 2.0 mg/mL) was “+”. For the same compound, the “Growth on agar plate” value (Enterococcus faecalis; 3.0 mg/mL) was “+”, the “Growth on agar plate” value (Enterococcus faecalis; 4.0 mg/mL) was “+” and the “Growth on agar plate” value (Escherichia coli; 0.25 mg/mL) was “+”. The “Growth on agar plate” value (Escherichia coli; 0.5 mg/mL) was “+”, the “Growth on agar plate” value (Escherichia coli; 1.0 mg/mL) was “+” and the “Growth on agar plate” value (Escherichia coli; 2.0 mg/mL) was “+”. For the same compound, the “Growth on agar plate” value (Escherichia coli; 3.0 mg/mL) was “+”, the “Growth on agar plate” value (Escherichia coli; 4.0 mg/mL) was “+” and the “activity (in words)” value (Pseudomonas aeruginosa) was “had an activity”. For the same compound, the “Growth on agar plate” value (Pseudomonas aeruginosa; 0.25 mg/mL) was “+”, the “Growth on agar plate” value (Pseudomonas aeruginosa; 0.5 mg/mL) was “+” and the “Growth on agar plate” value (Pseudomonas aeruginosa; 1.0 mg/mL) was “+”. For the same compound, the “Growth on agar plate” value (Pseudomonas aeruginosa; 2.0 mg/mL) was “+”, the “Growth on agar plate” value (Pseudomonas aeruginosa; 3.0 mg/mL) was “+” and the “Growth on agar plate” value (Pseudomonas aeruginosa; 4.0 mg/mL) was “−”. The MIC (Pseudomonas aeruginosa; [2]) was 4000 µg/mL (≈ 42.1 mM), the “Growth on agar plate” value (Salmonella sp.; 0.25 mg/mL) was “+” and the “Growth on agar plate” value (Salmonella sp.; 0.5 mg/mL) was “+”. For the same compound, the “Growth on agar plate” value (Salmonella sp.; 1.0 mg/mL) was “+”, the “Growth on agar plate” value (Salmonella sp.; 2.0 mg/mL) was “+” and the “Growth on agar plate” value (Salmonella sp.; 3.0 mg/mL) was “+”. For the same compound, the “Growth on agar plate” value (Salmonella sp.; 4.0 mg/mL) was “+”, the “activity (in words)” value (Staphylococcus aureus) was “had an activity” and the “Growth on agar plate” value (Staphylococcus aureus; 0.25 mg/mL) was “+”. The “Growth on agar plate” value (Staphylococcus aureus; 0.5 mg/mL) was “+”, the “Growth on agar plate” value (Staphylococcus aureus; 1.0 mg/mL) was “+” and the “Growth on agar plate” value (Staphylococcus aureus; 2.0 mg/mL) was “+”. For the same compound, the “Growth on agar plate” value (Staphylococcus aureus; 3.0 mg/mL) was “+”, the “Growth on agar plate” value (Staphylococcus aureus; 4.0 mg/mL) was “−” and the MIC (Staphylococcus aureus; [2]) was 4000 µg/mL (≈ 42.1 mM). For the same compound, the “activity (in words)” value (Streptococcus pneumoniae) was “had an activity”, the “Growth on agar plate” value (Streptococcus pneumoniae; 0.25 mg/mL) was “+” and the “Growth on agar plate” value (Streptococcus pneumoniae; 0.5 mg/mL) was “+”. The “Growth on agar plate” value (Streptococcus pneumoniae; 1.0 mg/mL) was “+”, the “Growth on agar plate” value (Streptococcus pneumoniae; 2.0 mg/mL) was “+” and the “Growth on agar plate” value (Streptococcus pneumoniae; 3.0 mg/mL) was “+”. For the same compound, the “Growth on agar plate” value (Streptococcus pneumoniae; 4.0 mg/mL) was “−”, the MIC (Streptococcus pneumoniae; [2]) was 4000 µg/mL (≈ 42.1 mM) and the “activity (in words)” value (Streptococcus pyogenes) was “had an activity”. The “Growth on agar plate” value (Streptococcus pyogenes; 0.25 mg/mL) was “+”, the “Growth on agar plate” value (Streptococcus pyogenes; 0.5 mg/mL) was “+” and the “Growth on agar plate” value (Streptococcus pyogenes; 1.0 mg/mL) was “+”. The “Growth on agar plate” value (Streptococcus pyogenes; 2.0 mg/mL) was “+”, the “Growth on agar plate” value (Streptococcus pyogenes; 3.0 mg/mL) was “+” and the “Growth on agar plate” value (Streptococcus pyogenes; 4.0 mg/mL) was “−”. For the same compound, the MIC (Streptococcus pyogenes; [2]) was 4000 µg/mL (≈ 42.1 mM), the “Growth on agar plate” value (Vibrio parahaemolyticus; 0.25 mg/mL) was “+” and the “Growth on agar plate” value (Vibrio parahaemolyticus; 0.5 mg/mL) was “+”. The “Growth on agar plate” value (Vibrio parahaemolyticus; 1.0 mg/mL) was “+”, the “Growth on agar plate” value (Vibrio parahaemolyticus; 2.0 mg/mL) was “+” and the “Growth on agar plate” value (Vibrio parahaemolyticus; 3.0 mg/mL) was “+”. The “Growth on agar plate” value (Vibrio parahaemolyticus; 4.0 mg/mL) was “−”, the MIC (Vibrio parahaemolyticus; [2]) was 4000 µg/mL (≈ 42.1 mM) and the “activity (in words)” value (Yersinia enterocolitica) was “had an activity”. For the same compound, the “Growth on agar plate” value (Yersinia enterocolitica; 0.25 mg/mL) was “+”, the “Growth on agar plate” value (Yersinia enterocolitica; 0.5 mg/mL) was “+” and the “Growth on agar plate” value (Yersinia enterocolitica; 1.0 mg/mL) was “+”. For the same compound, the “Growth on agar plate” value (Yersinia enterocolitica; 2.0 mg/mL) was “+”, the “Growth on agar plate” value (Yersinia enterocolitica; 3.0 mg/mL) was “+” and the “Growth on agar plate” value (Yersinia enterocolitica; 4.0 mg/mL) was “−”. It also gave an MIC (Yersinia enterocolitica; [2]) of 4000 µg/mL (≈ 42.1 mM).
